Results on eight compounds are retold here after PubChem BioAssay (NCI).

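A five-concentration, 48-hour dose response in 96-well plates underlies each endpoint, interpolated linearly between surrounding concentrations. GI50 marks 50% less growth. Definition used: TGI = concentration required for complete inhibition of growth.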

Among the test systems are MALME-3M melanoma; HL-60(TB) leukemia; TK-10 renal; OVCAR-3 ovarian; SR leukemia; SK-MEL-28 melanoma; NCI-H522 lung; NCI-H23 lung; NCI/ADR-RES ovarian; HCC-2998 colon.
Holding throughout (test): NCI anticancer screen, dose series, 48 h

`COC1=C(OC)C(=O)C(SC/C=C(\C)CCCC(C)CCCC(C)CCCC(C)C)=CC1=O` (stereo not given): the GI50 was 0.513 µM in the experiment with MALME-3M melanoma; 0.359 µM with HL-60(TB) leukemia; 2.46 µM in the experiment with TK-10 renal; 0.857 µM in the experiment with OVCAR-3 ovarian; 1.09 µM with SR leukemia; 1.04 µM in the experiment with SK-MEL-28 melanoma. In addition, the GI50 is 0.635 µM in the experiment on NCI-H522 lung, 1.37 µM in the experiment on NCI-H23 lung, 0.784 µM in the experiment with NCI/ADR-RES ovarian and 2.37 µM with HCC-2998 colon. Further, the TGI in the experiment with HL-60(TB) leukemia is 3.41 µM; in the experiment with TK-10 renal, > 59.4 µM; in the experiment on OVCAR-3 ovarian, > 100 µM; in the experiment with SR leukemia it was > 100 µM; with SK-MEL-28 melanoma, > 100 µM; in the experiment on NCI-H522 lung, > 38.1 µM. The TGI is 36.1 µM in the experiment on NCI-H23 lung, > 46.7 µM in the experiment with NCI/ADR-RES ovarian and > 100 µM with HCC-2998 colon.

As to `N#CC1=C(/N=C/c2ccccc2)Oc2c(ccc3ccccc23)C1c1ccccc1` (stereo not given), the GI50 is 0.67 µM with MALME-3M melanoma; 0.295 µM in the experiment on HL-60(TB) leukemia; 13.7 µM in the experiment on TK-10 renal; 0.341 µM in the experiment on OVCAR-3 ovarian; 0.409 µM with SR leukemia; 0.298 µM in the experiment on NCI-H522 lung. For the same compound, the values for the GI50 in the experiment with NCI-H23 lung, in the experiment on NCI/ADR-RES ovarian and in the experiment on HCC-2998 colon were 0.715 µM, 0.285 µM and 1.2 µM, respectively. Besides, the TGI in the experiment on MALME-3M melanoma is > 100 µM; with HL-60(TB) leukemia, 0.991 µM; with TK-10 renal, > 100 µM; with OVCAR-3 ovarian, 2.3 µM; in the experiment with SR leukemia, > 100 µM; with SK-MEL-28 melanoma it was > 100 µM. The TGI in the experiment on NCI-H23 lung was > 100 µM; in the experiment on NCI/ADR-RES ovarian it was 1.05 µM; in the experiment on HCC-2998 colon it was > 67.9 µM.

For the compound `COc1cc(/C=C/C(=O)c2cccc(-n3cc(-c4ccc(Cl)cc4)[nH]c3=O)c2)cc(OC)c1OC`, the GI50 is 18.1 µM with MALME-3M melanoma; 15.7 µM in the experiment on HL-60(TB) leukemia; 6.46 µM in the experiment with TK-10 renal; 2.48 µM with OVCAR-3 ovarian; 3.03 µM with SR leukemia; 10.9 µM in the experiment with SK-MEL-28 melanoma. For the same compound, the GI50 is 4.1 µM with NCI-H522 lung, 3.56 µM in the experiment with NCI-H23 lung, 2.36 µM with NCI/ADR-RES ovarian and 2.46 µM in the experiment with HCC-2998 colon. The TGI is > 100 µM in the experiment with MALME-3M melanoma; > 100 µM in the experiment on HL-60(TB) leukemia; 71.5 µM in the experiment on TK-10 renal; 6.02 µM in the experiment on OVCAR-3 ovarian; > 100 µM with SR leukemia; 25.6 µM in the experiment on SK-MEL-28 melanoma. Also, the TGI came to 21.9 µM with NCI-H522 lung, 16.9 µM in the experiment on NCI-H23 lung, 7.3 µM in the experiment on NCI/ADR-RES ovarian and 7.36 µM in the experiment on HCC-2998 colon.

For the compound `c1ccc2c(c1)Nc1ccncc1S2`, the GI50 was 28.2 µM in the experiment on MALME-3M melanoma; 19.4 µM in the experiment with HL-60(TB) leukemia; 22.7 µM in the experiment on TK-10 renal; 18.6 µM with OVCAR-3 ovarian; 13.4 µM in the experiment on SR leukemia; 31.5 µM in the experiment with SK-MEL-28 melanoma. The GI50 was 11.8 µM in the experiment on NCI-H522 lung, 20.7 µM with NCI-H23 lung, 21.4 µM in the experiment with NCI/ADR-RES ovarian and 27.9 µM in the experiment on HCC-2998 colon. Besides, the TGI with MALME-3M melanoma was 89.8 µM; in the experiment on HL-60(TB) leukemia, 75.4 µM; in the experiment on TK-10 renal, 83.4 µM; with OVCAR-3 ovarian, 57 µM; in the experiment with SR leukemia, 50.3 µM; with SK-MEL-28 melanoma it was > 100 µM. The TGI in the experiment on NCI-H522 lung is 65.7 µM; in the experiment on NCI-H23 lung, > 100 µM; in the experiment with NCI/ADR-RES ovarian, > 100 µM; in the experiment with HCC-2998 colon it was > 100 µM.

Regarding `COC1C(N)C(OC2C(Oc3cccc4c(O)c5c(=O)oc6ccc(C)c7c(=O)oc(c34)c5c67)OC(C)C(O)C2(C)O)OC(C)C1O` (stereo not given), the TGI was determined as 0.171 µM in the experiment with MALME-3M melanoma; 9.48 µM with HL-60(TB) leukemia; 1.27 µM with TK-10 renal; 0.406 µM in the experiment with OVCAR-3 ovarian; 8.12 µM in the experiment on SR leukemia; 0.34 µM with SK-MEL-28 melanoma. The TGI with NCI-H522 lung was 0.181 µM; with NCI-H23 lung, 0.249 µM; in the experiment with NCI/ADR-RES ovarian, 12.1 µM; in the experiment on HCC-2998 colon, 0.336 µM.

As to `CCC1(O)C(=O)OCc2c1cc1n(c2=O)Cc2cc3c(NC(=O)CN)cccc3nc2-1` (stereo not given), the GI50 with MALME-3M melanoma is 6.94 µM; with HL-60(TB) leukemia it was 0.129 µM; with TK-10 renal, 38.7 µM; in the experiment on OVCAR-3 ovarian, 3.3 µM; in the experiment on SR leukemia, 0.0262 µM; in the experiment on NCI-H522 lung, 0.387 µM. Also, the GI50 in the experiment with NCI-H23 lung is 0.27 µM; in the experiment with NCI/ADR-RES ovarian it was 0.296 µM; in the experiment with HCC-2998 colon it was 5.07 µM. For the same compound, the TGI in the experiment on MALME-3M melanoma is 41.1 µM; with HL-60(TB) leukemia it was 1.64 µM; with TK-10 renal, > 97.6 µM; in the experiment with OVCAR-3 ovarian it was 22.3 µM; with SR leukemia, 0.183 µM; with SK-MEL-28 melanoma it was > 100 µM. Besides, the TGI in the experiment with NCI-H522 lung came out at 9.9 µM; in the experiment with NCI-H23 lung, 2.58 µM; in the experiment on NCI/ADR-RES ovarian it was 1.51 µM; with HCC-2998 colon it was 25.6 µM.

`CCc1cccc(C)c1NC(=O)c1sc2nc3c(cc2c1N)C(=O)CCC3`: the GI50 in the experiment on MALME-3M melanoma was 0.685 µM; with HL-60(TB) leukemia, 0.327 µM; in the experiment on TK-10 renal, 0.774 µM; in the experiment with OVCAR-3 ovarian, 0.375 µM; in the experiment with SR leukemia it was 0.501 µM; in the experiment with SK-MEL-28 melanoma, 1.09 µM. Also, the GI50 with NCI-H522 lung is 0.234 µM; in the experiment on NCI-H23 lung, 0.732 µM; in the experiment on NCI/ADR-RES ovarian, 0.768 µM; in the experiment on HCC-2998 colon, 1.75 µM. Also, the TGI with MALME-3M melanoma is 98.8 µM; in the experiment on TK-10 renal, 79.6 µM; with OVCAR-3 ovarian, 2.74 µM; in the experiment on SR leukemia it was > 41.1 µM; in the experiment with SK-MEL-28 melanoma it was > 100 µM; with NCI-H522 lung, 3.82 µM. The TGI in the experiment with NCI-H23 lung, in the experiment with NCI/ADR-RES ovarian and in the experiment on HCC-2998 colon was > 100 µM throughout.

For the compound `O=C(/C=C/c1cccc(O)c1)c1cccc(-n2cc(-c3ccccc3)[nH]c2=O)c1`, the GI50 in the experiment with MALME-3M melanoma was 3.53 µM; in the experiment with HL-60(TB) leukemia, 3.27 µM; in the experiment on TK-10 renal, 2.43 µM; with OVCAR-3 ovarian, 2.58 µM; with SR leukemia, 1.51 µM; in the experiment with SK-MEL-28 melanoma, 8.07 µM. Further, the GI50 with NCI-H522 lung is 1.5 µM; in the experiment with NCI-H23 lung, 3.64 µM; in the experiment on NCI/ADR-RES ovarian, 3.94 µM; in the experiment with HCC-2998 colon, 8.27 µM. The TGI with MALME-3M melanoma is 10.9 µM; with HL-60(TB) leukemia it was 17.5 µM; in the experiment with TK-10 renal, 6.89 µM; with OVCAR-3 ovarian, 6.19 µM; in the experiment on SR leukemia, > 20.1 µM; in the experiment on SK-MEL-28 melanoma, 20.6 µM. In addition, the TGI was 4.3 µM in the experiment on NCI-H522 lung, 14.4 µM with NCI-H23 lung, 15.3 µM in the experiment with NCI/ADR-RES ovarian and 20.2 µM in the experiment with HCC-2998 colon.
